Experiment [1] is described as follows: Inhibition of Bacillus cereus PC-phospholipase C using phosphoryl-choline as substrate by molybdenum blue dye based assay.
For experiment [2], the target named is Phosphatidylcholine-specific phospholipase C (Bacillus cereus) (UniProt P09598). Kind of experiment: Inhibition of recombinant Bacillus cereus N-terminal His6-tagged full length PC-PLC 3C Protease cleavage site expressed in Escherichia coli BL21(DE3) cells using phosphatidylcholine as substrate by amplex red assay relative to control.
For experiment [3] the target is unchanged. The experiment can be described thus: Binding affinity to Bacillus cereus N-terminal His6-tagged full length PC-PLC 3C Protease cleavage site expressed in Escherichia coli BL21(DE3) cells using 3,3-dimethylglutaratic acid as substrate by intrinsic fluorescence assay.
The nature of experiment [4]: Inhibition of Bacillus cereus phospholipase C using L-alpha-phosphatidylcholine as substrate by Lineweaver-Burk plot analysis.

Phosphatidylcholine-specific phospholipase C (Bacillus cereus), sequence (P09598 whole entry, looked up): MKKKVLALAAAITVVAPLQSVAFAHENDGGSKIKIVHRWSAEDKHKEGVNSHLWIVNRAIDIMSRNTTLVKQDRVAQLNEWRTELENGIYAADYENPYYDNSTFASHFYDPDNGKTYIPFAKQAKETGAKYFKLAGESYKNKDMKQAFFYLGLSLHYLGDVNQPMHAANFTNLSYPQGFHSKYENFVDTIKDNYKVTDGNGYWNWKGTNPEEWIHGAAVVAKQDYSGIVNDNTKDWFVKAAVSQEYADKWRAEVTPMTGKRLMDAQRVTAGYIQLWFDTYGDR

For orientation: Ki means the dissociation constant of the complex between target and ligand, obtained from inhibition or displacement. Read a high Ki as lower affinity. Take `O=C1N(O)CCCCN1O`: in experiment [1], the Ki was found to be 71 µM.

A word on the IC50: it is the concentration needed to halve the response being measured. Regarding `CN(C)c1ccc(C2NC(C(=O)O)Cc3c2[nH]c2ccccc32)cc1` (stereo not drawn), the IC50 in experiment [2] came out at 10.9 µM.

With `O=C(O)C1Cc2c([nH]c3ccccc23)C(c2ccc(O)c(O)c2)N1` (stereo not drawn), in experiment [2], the IC50 worked out at 3.1 µM.

Regarding `O=C(O)c1cc(NCc2cccc(Cl)c2)ccc1N1CCOCC1`, the IC50 in experiment [2] was found to be 4.9 µM.

The term Kd denotes the concentration at which binding is half-saturated. Low values mean a tighter complex, high ones a looser complex. With `O=C(O)c1cc(NCc2ccccc2Cl)ccc1N1CCOCC1`, the Kd in experiment [3] came to 325 µM. For the same compound, the IC50 in experiment [2] amounted to 3.6 µM.

Consider `CCCCCOC(=O)CC(CSP(=O)([O-])OCC[N+](C)(C)C)C(=O)OCCCCC` (stereo not drawn), for which, in experiment [4], the affinity, expressed as Ki, was 7 µM.

In the case of `O=C(O)c1cc(NCc2cccc(Br)c2)ccc1N1CCOCC1`, the IC50 in experiment [2] came out at 3.69 µM.

The values above are taken from BindingDB's records for doi:10.1016/j.ejmech.2019.111919 (University of Auckland, 2020).
